Experimental data taken from patent publication US12162840B2, “Herbicidal compositions” (SYNGENTA PARTICIPATIONS AG, priority 2018, dated 2024).

Legend:
Assay type in all cases: in vivo
[1] = tested on: warm season plant species; experiment: B2 Post-emergence efficacy Test 2, warm season plant species; conditions: 15 days after application, 0-100 scale, 0=no damage, 100=total kill; for Herbicidal activity, ABUTH: Abutilon theophrasti; for Herbicidal activity, AMARE: Amaranthus retroflexus; for Herbicidal activity, BIDPI: Bidens pilosa; for Herbicidal activity, BRAPL: Brachiaria plantaginea; for Herbicidal activity, DIGSA: Digitaria sanguinalis; for Herbicidal activity, ECHCG: Echinochloa crus galli; for Herbicidal activity, ELEIN: Eleisine indica; for Herbicidal activity, EPHHL: Euphorbia hetrophylla; for Herbicidal activity, GLXMA: Glycine max; for Herbicidal activity, IPOHE: Ipomoea hederacea; for Herbicidal activity, ORYSA: Orysa sativa; for Herbicidal activity, PANMI: Panicum miliaceum; for Herbicidal activity, SETFA: Setaria faberi; for Herbicidal activity, SIDSP: Sida spinosa; for Herbicidal activity, SORVU: Sorghum bicolour; for Herbicidal activity, XANST: Xanthium strumarium; for Herbicidal activity, ZEAMX: Zea mays
Outline: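 Herbicidal effect rated visually 0 (no damage) to 100 (complete kill) at 15 days post-treatment. Post-emergence spray at 12 days used an IF50 formulation with 0.2% v/v Genapol XO80 adjuvant; glasshouse 24/18 or 20/16 °C, 16 h light, 65% humidity.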

[2] = tested on: Ipomoea hederacea (IPOHE); experiment: B1 Post-emergence efficacy Test 1; conditions: post-emergence application, 1000 g/ha, evaluated after 13 days
Outline: (§1)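 Plants sprayed 8 days after sowing with compound at 1000 g/ha in acetone/water (50:50) with 0.5% Tween 20; glasshouse at 24/16 °C day/night, 14 h light, 65% humidity. Damage scored 13 days later on a five-point scale (5=80-100% to 1=0-19%).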

[3] = tested on: Echinochloa crus-galli (ECHCG); experiment: B1 Post-emergence efficacy Test 1; conditions: post-emergence application, 1000 g/ha, evaluated after 13 days
Outline: as §1

[4] = tested on: Lolium perenne (LOLPE); experiment: B1 Post-emergence efficacy Test 1; conditions: post-emergence application, 1000 g/ha, evaluated after 13 days
Outline: as §1

[5] = tested on: Solanum nigrum (SOLNI); experiment: B1 Post-emergence efficacy Test 1; conditions: post-emergence application, 1000 g/ha, evaluated after 13 days
Outline: as §1

[6] = tested on: Amaranthus retoflexus (AMARE); experiment: B1 Post-emergence efficacy Test 1; conditions: post-emergence application, 1000 g/ha, evaluated after 13 days
Outline: as §1

[7] = tested on: Setaria faberi (SETFA); experiment: B1 Post-emergence efficacy Test 1; conditions: post-emergence application, 1000 g/ha, evaluated after 13 days
Outline: as §1

SMILES: Cc1nn(C)c(=O)c(-c2c(F)ccc(Cl)c2CCc2ccccc2C(F)(F)F)c1O [Compound 1.066]
- Herbicidal activity, ABUTH ([1]; 15 g/Ha): 20
- Herbicidal activity, ABUTH ([1]; 30 g/Ha): 50
- Herbicidal activity, ABUTH ([1]; 60 g/Ha): 50
- Herbicidal activity, ABUTH ([1]; 125 g/Ha): 90
- Herbicidal activity, ABUTH ([1]; 250 g/Ha): 90
- Herbicidal activity, ABUTH ([1]; 500 g/Ha): 100
- Herbicidal activity, AMARE ([1]; 15 g/Ha): 90
- Herbicidal activity, AMARE ([1]; 30 g/Ha): 90
- Herbicidal activity, AMARE ([1]; 60 g/Ha): 90
- Herbicidal activity, AMARE ([1]; 125 g/Ha): 100
- Herbicidal activity, AMARE ([1]; 250 g/Ha): 100
- Herbicidal activity, AMARE ([1]; 500 g/Ha): 100
- Herbicidal activity, BIDPI ([1]; 15 g/Ha): 50
- Herbicidal activity, BIDPI ([1]; 30 g/Ha): 60
- Herbicidal activity, BIDPI ([1]; 60 g/Ha): 70
- Herbicidal activity, BIDPI ([1]; 125 g/Ha): 80
- Herbicidal activity, BIDPI ([1]; 250 g/Ha): 90
- Herbicidal activity, BIDPI ([1]; 500 g/Ha): 90
- Herbicidal activity, BRAPL ([1]; 15 g/Ha): 0
- Herbicidal activity, BRAPL ([1]; 30 g/Ha): 60
- Herbicidal activity, BRAPL ([1]; 125 g/Ha): 80
- Herbicidal activity, BRAPL ([1]; 250 g/Ha): 70
- Herbicidal activity, BRAPL ([1]; 500 g/Ha): 100
- Herbicidal activity, DIGSA ([1]; 15 g/Ha): 0
- Herbicidal activity, DIGSA ([1]; 30 g/Ha): 20
- Herbicidal activity, DIGSA ([1]; 60 g/Ha): 20
- Herbicidal activity, DIGSA ([1]; 125 g/Ha): 40
- Herbicidal activity, DIGSA ([1]; 250 g/Ha): 70
- Herbicidal activity, DIGSA ([1]; 500 g/Ha): 70
- Herbicidal activity, ECHCG ([1]; 15 g/Ha): 20
- Herbicidal activity, ECHCG ([1]; 30 g/Ha): 80
- Herbicidal activity, ECHCG ([1]; 60 g/Ha): 90
- Herbicidal activity, ECHCG ([1]; 125 g/Ha): 90
- Herbicidal activity, ECHCG ([1]; 250 g/Ha): 90
- Herbicidal activity, ECHCG ([1]; 500 g/Ha): 90
- Herbicidal activity, ELEIN ([1]; 15 g/Ha): 0
- Herbicidal activity, ELEIN ([1]; 30 g/Ha): 20
- Herbicidal activity, ELEIN ([1]; 60 g/Ha): 70
- Herbicidal activity, ELEIN ([1]; 125 g/Ha): 70
- Herbicidal activity, ELEIN ([1]; 250 g/Ha): 70
- Herbicidal activity, ELEIN ([1]; 500 g/Ha): 80
- Herbicidal activity, EPHHL ([1]; 15 g/Ha): 60
- Herbicidal activity, EPHHL ([1]; 30 g/Ha): 70
- Herbicidal activity, EPHHL ([1]; 60 g/Ha): 80
- Herbicidal activity, EPHHL ([1]; 125 g/Ha): 90
- Herbicidal activity, EPHHL ([1]; 250 g/Ha): 100
- Herbicidal activity, EPHHL ([1]; 500 g/Ha): 100
- Herbicidal activity, GLXMA ([1]; 15 g/Ha): 20
- Herbicidal activity, GLXMA ([1]; 30 g/Ha): 40
- Herbicidal activity, GLXMA ([1]; 60 g/Ha): 70
- Herbicidal activity, GLXMA ([1]; 125 g/Ha): 70
- Herbicidal activity, GLXMA ([1]; 250 g/Ha): 90
- Herbicidal activity, GLXMA ([1]; 500 g/Ha): 90
- Herbicidal activity, IPOHE ([1]; 15 g/Ha): 70
- Herbicidal activity, IPOHE ([1]; 30 g/Ha): 90
- Herbicidal activity, IPOHE ([1]; 60 g/Ha): 90
- Herbicidal activity, IPOHE ([1]; 125 g/Ha): 100
- Herbicidal activity, IPOHE ([1]; 250 g/Ha): 100
- Herbicidal activity, IPOHE ([1]; 500 g/Ha): 100
- Herbicidal activity, ORYSA ([1]; 15 g/Ha): 0
- Herbicidal activity, ORYSA ([1]; 30 g/Ha): 0
- Herbicidal activity, ORYSA ([1]; 60 g/Ha): 0
- Herbicidal activity, ORYSA ([1]; 125 g/Ha): 10
- Herbicidal activity, ORYSA ([1]; 250 g/Ha): 20
- Herbicidal activity, ORYSA ([1]; 500 g/Ha): 40
- Herbicidal activity, PANMI ([1]; 15 g/Ha): 0
- Herbicidal activity, PANMI ([1]; 30 g/Ha): 50
- Herbicidal activity, PANMI ([1]; 60 g/Ha): 60
- Herbicidal activity, PANMI ([1]; 125 g/Ha): 80
- Herbicidal activity, PANMI ([1]; 250 g/Ha): 100
- Herbicidal activity, PANMI ([1]; 500 g/Ha): 100
- Herbicidal activity, SETFA ([1]; 15 g/Ha): 0
- Herbicidal activity, SETFA ([1]; 30 g/Ha): 70
- Herbicidal activity, SETFA ([1]; 60 g/Ha): 70
- Herbicidal activity, SETFA ([1]; 125 g/Ha): 80
- Herbicidal activity, SETFA ([1]; 250 g/Ha): 90
- Herbicidal activity, SETFA ([1]; 500 g/Ha): 90
- Herbicidal activity, SIDSP ([1]; 15 g/Ha): 40
- Herbicidal activity, SIDSP ([1]; 30 g/Ha): 80
- Herbicidal activity, SIDSP ([1]; 60 g/Ha): 80
- Herbicidal activity, SIDSP ([1]; 125 g/Ha): 90
- Herbicidal activity, SIDSP ([1]; 250 g/Ha): 90
- Herbicidal activity, SIDSP ([1]; 500 g/Ha): 100
- Herbicidal activity, SORVU ([1]; 15 g/Ha): 0
- Herbicidal activity, SORVU ([1]; 30 g/Ha): 20
- Herbicidal activity, SORVU ([1]; 60 g/Ha): 60
- Herbicidal activity, SORVU ([1]; 125 g/Ha): 80
- Herbicidal activity, SORVU ([1]; 250 g/Ha): 90
- Herbicidal activity, SORVU ([1]; 500 g/Ha): 100
- Herbicidal activity, XANST ([1]; 60 g/Ha): 90
- Herbicidal activity, XANST ([1]; 250 g/Ha): 100
- Herbicidal activity, XANST ([1]; 500 g/Ha): 100
- Herbicidal activity, ZEAMX ([1]; 15 g/Ha): 0
- Herbicidal activity, ZEAMX ([1]; 30 g/Ha): 20
- Herbicidal activity, ZEAMX ([1]; 60 g/Ha): 20
- Herbicidal activity, ZEAMX ([1]; 125 g/Ha): 20
- Herbicidal activity, ZEAMX ([1]; 250 g/Ha): 30
- Herbicidal activity, ZEAMX ([1]; 500 g/Ha): 70
- percentage damage caused to the plant, five point scale, IPOHE [2]: 5 (5=80-100%)
- percentage damage caused to the plant, five point scale, ECHCG [3]: 5 (5=80-100%)
- percentage damage caused to the plant, five point scale, LOLPE [4]: 4 (4=60-79%)
- percentage damage caused to the plant, five point scale, SOLNI [5]: 5 (5=80-100%)
- percentage damage caused to the plant, five point scale, AMARE [6]: 5 (5=80-100%)
- percentage damage caused to the plant, five point scale, SETFA [7]: 5 (5=80-100%)
